According to US12319913B2, “5-halouracil-modified microRNAs and their use in the treatment of cancer” (The Research Foundation for The State University of New York, priority 2018, dated 2025):
[5FU] = 5-fluorouracil base replacing uracil

What was measured:
[1] = test system: HCT116 colon cancer cells; assay: WST-1 cell proliferation assay, HCT116; type: cell-based, human; conditions: for inhibition of colon cancer cell proliferation: HCT116, in words, vs controls
Experimental: For transfections, […] (Thermo Fischer) following the manufacturer's protocols. For reagent free transfection, cells were plated in 6 well plates at (1×10^5) cells per well. Twenty-four hours later 100 pmol miRNA (Control, miR-15a, Mimic-1) were diluted in Optimem (Thermo Fischer) and added to the plate. Media was changed after 24 hours. Media was supplemented with 10% fetal bovine serum (Thermo Fischer). Briefly, cells were cultured in growth media (DMEM/F12 supplemented with B27, 10 ng/mL bFGF, and 20 ng/mL EGF (Life Technologies) in ultra-low attachment flasks) for up to 6 days. The spheroid cells were maintained by collection through gentle centrifugation, dissociation to single cells and replating.
(§1) Cell proliferation assay: Twenty-four hours after transfection, cells were seeded in 96-well plates at a density of 2000 cells per well. The cell proliferation assay was performed on days 1 to 5 by incubating 10 μl WST-1 (Roche Applied Science, Mannheim, Germany) in the culture medium for 1 h and reading the absorbance at 450 and 630 nm. The cell proliferation rate was calculated by subtracting the […]. Experiments for the cell proliferation assay were performed at least three times. The O.D. was calculated by subtracting the absorbance at 630 nm from that at 450 nm. Proliferation experiments were performed three times.

RKO colon cancer cells = assay: WST-1 cell proliferation assay, RKO; type: cell-based, human; conditions: in words, vs controls
Experimental: (§2) For transfections, 1×10^5 cells were plated in six-well plates and transfected with 100 nM of control non-specific miRNA (Thermo Fischer), a modified microRNA, or exogenous native microRNA after 24 hours using Oligofectamine (Thermo Fischer) following the manufacturer's protocols. For reagent free transfection, cells were plated in 6 well plates at (1×10^5) cells per well. Twenty-four hours later 100 pmol miRNA (Control, miR-15a, Mimic-1) were diluted in Optimem (Thermo Fischer) and added to the plate. Media was changed after 24 hours. Media was supplemented with 10% fetal bovine serum (Thermo Fischer). Briefly, cells were cultured in growth media (DMEM/F12 supplemented with B27, 10 ng/mL bFGF, and 20 ng/mL EGF (Life Technologies) in ultra-low attachment flasks) for up to 6 days. […]
as §1, with “Experiments for the cell proliferation assay were performed at least three times.” left out, “Proliferation experiments were performed three times.” left out

SW620 colon cancer cells = assay: WST-1 cell proliferation assay, SW620; type: cell-based, human; conditions: SW620, in words, vs controls
Experimental: as §2
as §1, with “Experiments for the cell proliferation assay were performed at least three times.” left out, “Proliferation experiments were performed three times.” left out

colon cancer stem cells = assay: Anchorage-independent colony formation (soft agar); type: cell-based, human; conditions: soft agar / Matrigel matrix
Experimental: Anchorage-independent proliferation was studied to determine cancer cell colony forming ability. Cancer cells were trypsinized and counted and a total of 1×10^5 cells per well were transfected in 6-well plates with 25 nM modified microRNA or native miRs or a negative control miRNA with oligofectamine, and 6 hours after transfection, cells were recounted. A total of 20,000 cells in 0.35% agar (Bacto Agar; Becton Dickinson) were layered on top of 1 mL of a solidified 0.6% agar layer in a 35-mm dish. Growth media with B27, 10 ng/mL bFGF, and 20 ng/mL EGF were included in both layers. After 2 weeks of incubation, colonies more than […] in diameter were counted.

[2] = test system: metastatic human colon cancer cells; assay: Colon cancer metastasis mouse model, intravenous miRNA delivery; type: in vivo; conditions: 40 μg intravenous, every other day for two weeks
Experimental: For in vivo miRNA delivery experiments, colon cancer cells were created that expressed the lenti-luc reporter gene by infecting parental HCT116 cells with a recombinant lentivirus. Luciferase-expressing HCT116 cells (2.0×10^6 cells per mouse) were suspended in 0.1 mL of PBS solution and was injected through tail vein of each mouse. Two weeks after injection of colon cancer cells, mice were treated via tail vein injection with 40 μg of negative control or modified miR(s) packaged with in vivo-jetPEI (Polyplus Transfection). Mice were treated every other day for 2 weeks (8 times). Following treatment, mice were screened using IVIS Spectrum In vivo Imaging System (IVIS) (PerkinElmer).

[3] = test system: Panc-1 pancreatic cancer cells; assay: Cell proliferation, Panc-1; type: cell-based, human; conditions: for cell proliferation, dose dependence: PANC-1, 50 nM, 25 nM, 12.5 nM, 6.25 nM, and 3.125 nM
Experimental: (§3) […] For reagent free transfection, cells were plated in 6 well plates at (1×10^5) cells per well. Twenty-four hours later 100 pmol miRNA (Control, miR-15a, Mimic-1) were diluted in Optimem (Thermo Fischer) and added to the plate. Media was changed after 24 hours. Media was supplemented with 10% fetal bovine serum (Thermo Fischer). Briefly, cells were cultured in growth media (DMEM/F12 supplemented with B27, 10 ng/mL bFGF, and 20 ng/mL EGF (Life Technologies) in ultra-low attachment flasks) for up to 6 days. The spheroid cells were maintained by collection through gentle centrifugation, dissociation to single cells and replating.
as §1

[4] = test system: AsPC-1 pancreatic cancer cells; assay: Cell proliferation, AsPC-1; type: cell-based, human; conditions: for cell proliferation, dose dependence: APSC-1, 50 nM, 25 nM, 12.5 nM, 6.25 nM, and 3.125 nM
Experimental: as §3, §1

A549 lung cancer cells = assay: Cell proliferation, A549; type: cell-based, human; conditions: for lung cancer cell proliferation: A549, compared to negative controls; for inhibition of cell proliferation: A549, compared to unmodified miR or negative controls
Experimental: (§4) For transfections, 1×10^5 cells were plated in six-well plates and transfected with 100 nM of control non-specific miRNA (Thermo Fischer), a modified microRNA, or exogenous native microRNA after 24 hours using Oligofectamine (Thermo Fischer) following the manufacturer's protocols. For reagent free transfection, cells were plated in 6 well plates at (1×10^5) cells per well. Twenty-four hours later 100 pmol miRNA (Control, miR-15a, Mimic-1) were diluted in Optimem (Thermo Fischer) and added to the plate. Media was changed after 24 hours. Media was supplemented with 10% fetal bovine serum (Thermo Fischer). Briefly, cells were cultured in growth media (DMEM/F12 supplemented with B27, 10 ng/mL bFGF, and 20 ng/mL EGF (Life Technologies) in ultra-low attachment flasks) for up to 6 days. The spheroid cells were maintained by collection through gentle centrifugation, dissociation to single cells and replating.
as §1

[5] = test system: Hs766T pancreatic cancer cells; assay: Cell proliferation, Hs766T; type: cell-based, human; conditions: compared to negative controls
Experimental: as §4, §1

[6] = test system: SKBR3 breast cancer cells; assay: Cell proliferation, SKBR3; type: cell-based, human; conditions: SKBR3, compared to negative controls
Experimental: as §4, §1

[7] = test system: acute lymphocytic leukemia cell line (REH); assay: Cell proliferation, REH; type: cell-based, human; conditions: 50 nM, 25 nM, 12.5 nM, 6.25 nM, and 3.125 nM

Row | Substance | HCT-116 tumor cell growth ([1]; 50 nM) | inhibition of colon cancer cell proliferation [1] | inhibitory effect on cell proliferation relative to native miR-129 ([1]; HCT-116, FIG. 3) | inhibition of colon cancer cell proliferation (RKO colon cancer cells) | inhibition of colon cancer cell proliferation (SW620 colon cancer cells) | colony / sphere formation (colon cancer stem cells) | colon cancer metastasis [2] | toxicity [2] | toxicity ([2]; listed as modified microRNA-129) | cell proliferation, dose dependence [3] | cell proliferation, dose dependence [4] | lung cancer cell proliferation (A549 lung cancer cells) | inhibition of cell proliferation (A549 lung cancer cells) | pancreatic cancer cell proliferation [5] | breast cancer cell proliferation [6] | leukemia cancer cell proliferation, dose dependence [7] | decrease of cell proliferation compared to control ([1]; HCT-116, WST-1, six days after transfection) | inhibition of cell proliferation ([3]; Panc-1, compared to unmodified miR or negative controls) | inhibition of cell proliferation ([4]; AsPC-1, compared to unmodified miR or negative controls)
1 | CU^FU^FU^FU^FU^FGCGGU^FCU^FGGGCU^FU^FGC (CUUUUUGCGGUCUGGGCUUGC; RNA, [5FU] at 2, 3, 4, 5, 6, 11, 13, 18, 19, backbone not given here) [modified miR-129] | suppress HCT-116 tumor cell growth completely | inhibition of colon cancer cell proliferation | much more potent than the native miR-129 | inhibition of colon cancer cell proliferation | inhibition of colon cancer cell proliferation | formed no visible spheres | inhibits colon cancer metastasis | did not exhibit any toxicity | no toxic side effects | inhibited in a dose dependent manner | inhibited in a dose dependent manner | inhibited | enhanced ability to inhibit | inhibited | inhibited | inhibited in a dose dependent manner | – | – | –
2 | U^FAGCAGCACAU^FAAU^FGGU^FU^FU^FGU^FG (UAGCAGCACAUAAUGGUUUGUG; RNA, [5FU] at 1, 11, 14, 17, 18, 19, 21, backbone not given here) [modified miR-15a] | – | enhanced ability to inhibit colon cancer cell proliferation | – | enhanced ability to inhibit colon cancer cell proliferation | enhanced ability to inhibit colon cancer cell proliferation | no colonies were observed | inhibit colon cancer metastasis | did not exhibit any toxicity | – | inhibited in a dose dependent manner | inhibited in a dose dependent manner | inhibited | enhanced ability to inhibit | inhibited | inhibited | inhibited in a dose dependent manner | 84% | enhanced ability to inhibit | enhanced ability to inhibit
